The text below walks through data of patent US20260034116A1, “CANCER COMBINATION THERAPY INCLUDING A BCL-2 INHIBITOR” (RYVU THERAPEUTICS S.A., priority 2022, published 2026).

Read-outs that look alike come from different tables or passages of the source.

One data set has as its system AML. Conditions: single agent in AML treatment; cited from earlier work.
The test system of data set [1] is MOLM-13 cells (FLT3 ITD). In words: in vitro standard cytotoxicity assay (MTS), Ven and/or 5-Aza 48 h followed by Men 24 h. Format: cell-based, human. The settings on record: MOLM13 cells, single agent cytotoxic assay, same time points as combination; for IC50: read-out: IC50 dose level. The method, then: (§1) In an in vitro standard cytotoxicity assay, three AML cell lines (KG1 [FLT3 wt], MV4-11 [FLT3 ITD] and MOLM-13 [FLT3 ITD]) were treated with Ven and/or 5-Aza for 48 hours, followed by Men treatment for additional 24 hours. […] In MOLM13 cells (FLT3 ITD), the CI of the triple combination was similar to the CIs of the Men-Ven and the VenAza combinations (see Table 3).
(§2) Human acute myeloid leukemia cell lines KG-1, MV4-11 and MOLM-13 were obtained from DSMZ, Braunschweig, Germany (ACC14, ACC102 and ACC554). KG-1 and MV4-11 cells were cultured in RPMI 1640 medium (Gibco, Life Technologies, Carlsbad, CA, USA) supplemented with 10% fetal bovine serum (FBS) (Sigma, Saint Louis, CA, USA). MOLM-13 cells were grown in RPMI with 20% FBS. All cells were incubated at 37° C., 5% CO2, 80% relative humidity. The human acute myeloid leukemia cell line MOLM-16 was obtained from DSMZ, Braunschweig, Germany (cell line number ACC-555. MOLM-16 cells were grown in RPMI with 20% FBS (Sigma, Saint Louis, CA, USA). Cells were incubated at 37° C., 5% CO2, 80% relative humidity.
(§3) Men (alternatively referred to as “MEN1703”, in the HCI-salt form (CAS number 2769008-22-) with the IUPAC name 5,6-dibromo-4-nitro-2-(piperidin-4-yl)-1-(propan-2-yl)-1H-1,3-benzodiazole-4-amine hydrochloride (batch no. A/2201/24/1)), synthesized at Aptuit (VR) and Venetoclax (alternatively referred to as “Ven” or “ABT-199”, ChemCruz no. SC-472284A) were dissolved in DMSO, divided into aliquots and stored at-80° C. until use. Stock solutions were added at appropriate concentration in culture medium before the addition to cells. […] A stock solution was added at appropriate concentration in culture medium before the addition to cells.
(§4) For cytotoxicity studies cells were seeded at appropriate density (50.000 cells/well) prior to addition of Ven and 5-Aza at day 0. 5-Aza was added every 24 hours due to degradation (Hollen-bach PW, 2010 and Chang E, 2016). Then, after 48 hours, Men was added to cultured cells for the final 24 h (overall, a period of 72 h was tested). The concentration range was previously identified in single agent cytotoxic assay for the same time points in order to include in the combination experiment the IC10, IC25, IC50 and IC75 values for each drug and for each AML cell lines (see Tables 1 to 3). All possible combinations were assessed: Men+Ven, Ven+5-Aza, Men+5-Aza and men+5-Aza+Ven (mav). After 72 hours, CellTiter 96 Aqueous One Solution Reagent (MTS) (Promega, Madison. WI, USA) was added to assess the cell viability. […] was measured 4h later using Tecan Infinite M200 (Tecan Trading AG, Switzerland), recording absorbance at 490 nm. Quantitative measurement of synergism/antagonism was evaluated with Combination Index (CI) on the Fraction affected (Fa) using CompuSyn (ComboSyn, Inc. Paramus, NJ, USA) (Chou TC, 2006).

For another data set, the system named is KG1 cells (FLT3 wt). The data set is described as above. Format: cell-based, human. The settings on record: same time points as combination; for IC50: read-out: IC50 dose level. The method, then: as §1, §2, §3, §4
In data set [2] the test system is MV4-11 cells (FLT3 ITD). Described as above. Conditions: single agent cytotoxic assay, same time points as combination; for IC50: read-out: IC50 dose level. Format: cell-based, human. The method, then:
as §1, §2, §3, §4

Data set [3] has as its system broad panel of AML cell lines in xenograft models. The settings on record: in vivo; cited from earlier work.
Data set [4] deals with MOLM-13 cells (FLT3 ITD). Nature of the data set: in vitro standard cytotoxicity experiment (MTS), 72 h, MEN with S65487 or AZD4320. The data set is classed as cell-based, human. The settings on record: single agent. The method, then: (§5) In an in vitro standard cytotoxicity experiment, two AML cell lines (MOLM-13 [FLT3 ITD] and MV4-11 [FLT3 ITD]) were treated for 72 hours with MEN and S65487 either as a single agent or in combination.
(§6) In an in vitro standard cytotoxicity experiment, two AML cell lines (MOLM-13 [FLT3 ITD] and MV4-11 [FLT3 ITD]) were treated for 72 hours with MEN and AZD4320 either as a single agent or in combination.
(§7) Human acute myeloid leukemia cell lines MV4-11 and MOLM-13 were obtained from DSMZ, Braunschweig, Germany (ACC102 and ACC554). MV4-11 cells were cultured in RPMI 1640 medium (Gibco, Life Technologies, Carlsbad, CA, USA) supplemented with 10% fetal bovine serum (FBS) (Sigma, Saint Louis, CA, USA). MOLM-13 cells were grown in RPMI with 20% FBS. All cells were incubated at 37° C., 5% CO2, 80% relative humidity.
(§8) MEN1703 (alternatively referred to as “Men”, “MEN”, “MEN1703” or “SEL24/MEN1703”), in the HCl-salt form (CAS number 2769008-22-) with the IUPAC name 5,6-dibromo-4-nitro-2-(piperidin-4-yl)-1-(propan-2-yl)-1H-1,3-benzodiazole-4-amine hydrochloride (batch no. A/2201/24/1)), synthesized at Aptuit (VR); AZD4320 from MedChem Express, Monmouth Junction, NJ, USA, batch no. 64354) and S65487 from MedChem Express, Monmouth Junction, NJ, USA were dissolved in DMSO, divided into aliquots and stored at −80° C. until use. Stock solutions were added at appropriate concentration in culture medium before the addition to cells.
(§9) For cytotoxicity studies cells were seeded at appropriate density (50,000 cells/well) prior to addition of MEN and Quiz at day 0. The concentration range was previously identified in single agent cytotoxicity assays for the same time points in order to include in the combination experiment the IC10, IC25, IC50 and IC75 values for each drug and for each AML cell lines (see Tables 4 to 7). After 72 hours, CellTiter 96 Aqueous One Solution Reagent (MTS) (Promega, Madison. WI, USA) was added to assess the cell viability. […] was measured 4 h later using Tecan Infinite M200 (Tecan Trading AG, Switzerland), recording absorbance at 490 nm. Quantitative measurement of synergism/antagonism was evaluated with Combination Index (CI) on the Fraction affected (Fa) using CompuSyn (ComboSyn, Inc. Paramus, NJ, USA) (Chou TC, 2006).

Data set [5] has as its system MV4-11 cells (FLT3 ITD). Described as above. Format: cell-based, human. The settings on record: single agent. The protocol: as §5, §6, §7, §8, §9
Where [6] appears, read: Homo sapiens, KG-1, single agent cytotoxic assay.

On to `CC1(C)CCC(CN2CCN(c3ccc(C(=O)NS(=O)(=O)c4ccc(NCC5CCOCC5)c([N+](=O)[O-])c4)c(Oc4cnc5[nH]ccc5c4)c3)CC2)=C(c2ccc(Cl)cc2)C1` [Ven, Venetoclax], for which the safety result in the data set with AML is listed as “safe”. Besides, the IC50 (commonly the concentration needed to halve the response being measured) with MOLM-13 cells (FLT3 ITD) [1] (Homo sapiens, MOLM-13) was determined as 0.45 µM; in the data set with KG1 cells (FLT3 wt) (setting [6]) it was 1.65 µM; in the data set with MV4-11 cells (FLT3 ITD) [2] (Homo sapiens), 0.003 µM. Besides, the IC10 dose level in the data set with MOLM-13 cells (FLT3 ITD) [1] worked out at 0.012 µM; with KG1 cells (FLT3 wt) (single agent cytotoxic assay), 0.18 µM; in the data set on MV4-11 cells (FLT3 ITD) [2] it was 0.000276 µM. Further, the IC25 dose level in the data set with MOLM-13 cells (FLT3 ITD) [1] was determined as 0.075 µM; in the data set on KG1 cells (FLT3 wt) (single agent cytotoxic assay) it was 0.55 µM; in the data set on MV4-11 cells (FLT3 ITD) [2], 0.000829 µM. The IC75 dose level in the data set with MOLM-13 cells (FLT3 ITD) [1] is 2.77 µM; in the data set with KG1 cells (FLT3 wt) (single agent cytotoxic assay), 4.95 µM; with MV4-11 cells (FLT3 ITD) [2], 0.007 µM.
Consider `Nc1ncn([C@@H]2O[C@H](CO)[C@@H](O)[C@H]2O)c(=O)n1` [Aza, 5-Azacitidine], for which the half-inhibitory concentration (IC50) is 0.96 µM in the data set with MOLM-13 cells (FLT3 ITD) [1] (Homo sapiens, MOLM-13); 0.76 µM with KG1 cells (FLT3 wt) (setting [6]); 0.65 µM in the data set with MV4-11 cells (FLT3 ITD) [2] (Homo sapiens). Moreover, the IC10 dose level with MOLM-13 cells (FLT3 ITD) [1] worked out at 0.083 µM; in the data set with KG1 cells (FLT3 wt) (single agent cytotoxic assay), 0.097 µM; in the data set with MV4-11 cells (FLT3 ITD) [2] it was 0.14 µM. Further, the IC25 dose level with MOLM-13 cells (FLT3 ITD) [1] is 0.28 µM; in the data set on KG1 cells (FLT3 wt) (single agent cytotoxic assay) it was 0.27 µM; with MV4-11 cells (FLT3 ITD) [2] it was 0.3 µM. Moreover, the figures for the IC75 dose level with MOLM-13 cells (FLT3 ITD) [1], in the data set with KG1 cells (FLT3 wt) (single agent cytotoxic assay) and with MV4-11 cells (FLT3 ITD) [2] were 3.28 µM, 2.15 µM and 1.41 µM, respectively.
`CC(C)n1c(C2CCNCC2)nc2c([N+](=O)[O-])c(Br)c(Br)cc21` [Men, 5,6-dibromo-4-nitro-2-(piperidin-4-yl)-1-(pro-pan-2-yl)-1H-1,3-benzodiazole]: the “growth of AML cell lines in xenograft models” value in data set [3] is “inhibit the growth of a broad panel of AML cell lines in xenograft models”. In the data set on MOLM-13 cells (FLT3 ITD) [1], the IC10 dose level stood at 0.04 µM, the IC25 dose level was 0.28 µM, the IC75 dose level was found to be 10.88 µM and the IC50 was determined as 1.73 µM. Also, in the data set with KG1 cells (FLT3 wt) (single agent cytotoxic assay), the IC10 dose level was determined as 0.151 µM, the IC25 dose level is 0.293 µM, the IC75 dose level was determined as 1.103 µM and the 50% inhibitory concentration (IC50) came to 0.569 µM. Besides, in the data set with MV4-11 cells (FLT3 ITD) [2], the IC10 dose level was determined as 0.006 µM, the IC25 dose level stood at 0.048 µM, the IC75 dose level was found to be 2.77 µM and the IC50 amounted to 0.366 µM. In the data set with MOLM-13 cells (FLT3 ITD) [4], the IC10 (usually the concentration needed for an effect of 10%) came to 0.08729 µM; the concentration for an effect of 25% (IC25) (commonly the concentration at which the effect reaches the 25% level) was determined as 0.2111 µM; the IC50 turned out to be 0.51 µM; the IC75 – broadly, the point of the concentration-response curve where the effect stands at 75% – was determined as 1.234 µM. Further, in the data set on MV4-11 cells (FLT3 ITD) [5], the concentration for an effect of 10% (IC10) worked out at 0.01315 µM, the IC25 is 0.0350 µM, the IC50 amounted to 0.093 µM and the concentration for an effect of 75% (IC75) came out at 0.2486 µM.
Turning to `CN(CCO)CC[C@H](CSc1ccccc1)Nc1ccc(S(=O)(=O)NC(=O)c2ccc(N3CCC([C@@H](O)c4ccccc4-c4ccc(Cl)cc4)CC3)cc2)cc1S(=O)(=O)C(F)(F)F` [AZD4320], in the data set with MOLM-13 cells (FLT3 ITD) [4], the 10% effect concentration (IC10) amounted to 0.0034 µM, the IC25 worked out at 0.0110 µM, the 50% inhibitory concentration (IC50) was 0.037 µM and the 75% effect concentration (IC75) came out at 0.1200 µM. For the same compound, in the data set with MV4-11 cells (FLT3 ITD) [5], the IC10 was found to be 0.00065 µM, the 25% effect concentration (IC25) was determined as 0.0013 µM, the 50% inhibitory concentration (IC50) is 0.0027 µM and the IC75 amounted to 0.0055 µM.
Turning to `Cc1c(N(C(=O)c2cc(-c3cc(Cl)ccc3C(=O)N3Cc4ccccc4C[C@H]3CN3CCOCC3)n(C)c2C)c2ccc(O)cc2)cc(C#N)n1C` [S65487], in the data set with MOLM-13 cells (FLT3 ITD) [4] (Homo sapiens), the IC50 came to 0.225 µM. Also, in the data set on MOLM-13 cells (FLT3 ITD) [4], the 10% effect concentration (IC10) was found to be 0.0145 µM, the IC25 was 0.0570 µM and the IC75 is 0.8800 µM. The IC50 in the data set on MV4-11 cells (FLT3 ITD) [5] (Homo sapiens) is 0.018 µM. In the data set with MV4-11 cells (FLT3 ITD) [5], the IC10 came out at 0.0025 µM, the IC25 turned out to be 0.0066 µM and the 75% effect concentration (IC75) was determined as 0.0480 µM.
